How the values were obtained:
[1] = tested on: resistance-trained males; experiment: Body composition (weight, lean body mass, fat) by dual x-ray absorptiometry, 12-week resistance training study; type: in vivo, human
[2] = tested on: cortisol; experiment: Serum cortisol ELISA; type: in vivo, human; details: for effect on cortisol levels: during the study, vs placebo; for Cortisol: Mean ± SEM
Method: (§1) Prior to the study, participants were randomly assigned to receive either 3 g per day of HMB Free Acid (HMB) (combined with food-grade orange flavors and sweeteners), 400 mg per day of ATP (PEAK ATP®; TSI, Inc.), a combination of both 3 g of HMB and 400 mg per day of ATP, or a placebo (food-grade orange flavors and sweeteners) divided equally into three servings daily with the first serving given 30 minutes prior to exercise and the remaining two servings daily with the mid-day and evening meals. On the non-training days participants were instructed to consume one serving with each of three separate meals. The supplementation was continued daily throughout the training and testing protocols. Each serving was formulated with 1 gram of HMB free acid to account for fill and emptying variation and achieve a minimum effective dosage of 0.800 grams. This dosage would be equivalent to a 1 gram Ca-HMB dosage.
(§2) All blood draws throughout the study were obtained via venipuncture after a 12-hour fast by a trained phlebotomist. Whole blood was collected and transferred into appropriate tubes for obtaining serum and plasma and centrifuged at 1,500 g for 15 min at 4° C. Resulting serum and plasma were then aliquoted and stored at −80° C. until subsequent analyses.
(§3) Samples were thawed one time and analyzed in duplicate for each analyte. All blood draws were scheduled at the same time of day to negate confounding influences of diurnal hormonal variations. Serum total and free testosterone, cortisol, and C-reactive protein (CRP) were assayed via ELISA kits obtained from Diagnostic Systems Laboratories (Webster, Tex.). All hormones were measured in the same assay on the same day to avoid compounded interassay variance. […] Serum creatine kinase (CK) was measured using colorimetric procedures at 340 nm (Diagnostics Chemicals, Oxford, Conn.). Twenty-four hour urine collections were made and 3-methylhistine was determined by previously described methods (Rathmacher et al 1992 and Wilson et al, 2013).

[3] = tested on: free testosterone; experiment: Serum free testosterone ELISA; type: in vivo, human; details: for effect on free testosterone: main effect; for Free Testosterone: Mean ± SEM
Method: as §1, §2, §3

[4] = tested on: total testosterone; experiment: Serum total testosterone ELISA; type: in vivo, human; details: for effect on total testosterone: main effect; for Total Testosterone: Mean ± SEM
Method: as §1, §2, §3

[5] = tested on: resistance-trained males; experiment: Perceived Recovery Status (PRS) scale; type: in vivo, human; details: for effect on PRS: 12-week study, vs placebo; for PRS (perceived recovery score): scale of 0-10, Mean ± SEM
Method: as §1
[…] The PRS scale consists of values between 0-10, with 0-2 being very poorly recovered and with anticipated declines in performance, 4-6 being low to moderately recovered and expected similar performance, and 8-10 representing high perceived recovery with expected increases in performance.

[6] = tested on: resistance-trained males; experiment: Vertical jump peak power on force platform; type: in vivo, human; details: for vertical jump power increase: over the 12-weeks of training; for decrease in vertical jump power during the overreaching cycle: over weeks 9 and 10
Method: Measurements of PP were also taken during a vertical jump (VJ) test performed on a multi-component AMTI force platform (Advanced Mechanical Technology, Inc., Watertown, Mass.), interfaced with a personal computer at a sampling rate of 1000 Hz (51). Data acquisition software (LabVIEW, version 7.1; National Instruments Corporation, Austin, Tex.) was used to calculate PP. Peak power was calculated as the peak combination of ground reaction force and peak velocity during the accelerated launch on the platform. The ICC of VJ power was 0.97. Prior to the study, participants were randomly assigned to receive either 3 g per day of HMB Free Acid (HMB) (combined with food-grade orange flavors and sweeteners), 400 mg per day of ATP (PEAK ATP®; TSI, Inc.), a combination of both 3 g of HMB and 400 mg per day of ATP, or a placebo (food-grade orange flavors and sweeteners) divided equally into three servings daily with the first serving given 30 minutes prior to exercise and the remaining two servings daily with the mid-day and evening meals. On the non-training days participants were instructed to consume one serving with each of three separate meals. The supplementation was continued daily throughout the training and testing protocols. […] This dosage would be equivalent to a 1 gram Ca-HMB dosage. All participants performed a high volume resistance training protocol during the 12-week study. The phases of the study and measurements taken are shown in FIG. 1, and the exercise protocols for each phase of the study are shown in Tables 1 to 3. The training was divided into 3 phases, with Phase 1 consisting of daily undulating periodization (weeks 1 to 8), Phase 2 consisting of the overreaching cycle (weeks 9 and 10), and Phase 3 consisting of the taper cycle (weeks 11 and 12).

[7] = tested on: skeletal muscle; details: acute ingestion of 2.4 grams; cited from earlier work
[8] = after HMB is fed; cited from earlier work
[9] = after administration; cited from earlier work

Structure (SMILES): CC(C)(O)CC(=O)O [HMB-FA, β-hydroxy-β-methylbutyric acid]
- Lean body mass increase ([1]; 12-week study): 7.4 ± 0.4 kg
- fat percentage decrease ([1]; 12-week study): 7.0±0.6%
- DXA Fat ([1]; week 0 (baseline)): 20.4 ± 1.4%
- DXA LBM ([1]; week 0 (baseline)): 66.2 ± 2.6 kg
- Weight ([1]; week 0 (baseline)): 83.1 ± 2.8 kg
- DXA Fat ([1]; week 4): 17.6 ± 1.4%
- DXA LBM ([1]; week 4): 69.2 ± 2.7 kg
- Weight ([1]; week 4): 83.9 ± 2.8 kg
- DXA Fat ([1]; week 8): 15.9 ± 1.5 %
- DXA LBM ([1]; week 8): 71.3 ± 2.7 kg
- Weight ([1]; week 8): 84.8 ± 2.9 kg
- DXA Fat ([1]; week 12): 13.5 ± 1.5 %
- DXA LBM ([1]; week 12): 73.5 ± 2.7 kg
- Weight ([1]; week 12): 85.0 ± 3.0 kg
- effect on cortisol levels [2]: decreased cortisol levels
- Cortisol ([2]; week 0 (baseline)): 21.5 ± 1.4 µg/dL
- Cortisol ([2]; week 1): 20.3 ± 1.2 µg/dL
- Cortisol ([2]; week 4): 20.9 ± 1.0 µg/dL
- Cortisol ([2]; week 8): 18.8 ± 1.5 µg/dL
- Cortisol ([2]; week 9 (overreaching)): 19.6 ± 1.1 µg/dL
- Cortisol ([2]; week 10 (overreaching)): 18.6 ± 1.2 µg/dL
- Cortisol ([2]; week 12): 17.4 ± 1.2 µg/dL
- effect on free testosterone [3]: no main effect differences
- Free Testosterone ([3]; week 0 (baseline)): 109 ± 10 ng/dL
- Free Testosterone ([3]; week 1): 104 ± 8 ng/dL
- Free Testosterone ([3]; week 4): 116 ± 11 ng/dL
- Free Testosterone ([3]; week 8): 115 ± 9 ng/dL
- Free Testosterone ([3]; week 9 (overreaching)): 118 ± 8 ng/dL
- Free Testosterone ([3]; week 10 (overreaching)): 116 ± 8 ng/dL
- Free Testosterone ([3]; week 12): 127 ± 8 ng/dL
- effect on total testosterone [4]: no main effect differences
- Total Testosterone ([4]; week 0 (baseline)): 708 ± 35 ng/dL
- Total Testosterone ([4]; week 1): 708 ± 48 ng/dL
- Total Testosterone ([4]; week 4): 730 ± 63 ng/dL
- Total Testosterone ([4]; week 8): 652 ± 35 ng/dL
- Total Testosterone ([4]; week 9 (overreaching)): 752 ± 61 ng/dL
- Total Testosterone ([4]; week 10 (overreaching)): 701 ± 34 ng/dL
- Total Testosterone ([4]; week 12): 728 ± 39 ng/dL
- effect on PRS [5]: improved PRS
- PRS (perceived recovery score) ([5]; week 0 (baseline)): 9.1 ± 0.3
- PRS (perceived recovery score) ([5]; week 1): 6.3 ± 0.3
- PRS (perceived recovery score) ([5]; week 4): 7.6 ± 0.3
- PRS (perceived recovery score) ([5]; week 8): 8.5 ± 0.3
- PRS (perceived recovery score) ([5]; week 9 (overreaching)): 8.0 ± 0.2
- PRS (perceived recovery score) ([5]; week 10 (overreaching)): 7.7 ± 0.2
- PRS (perceived recovery score) ([5]; week 12): 9.5 ± 0.2
- vertical jump power increase [6]: 991±51 watts
- decrease in vertical jump power during the overreaching cycle [6]: 1.4±0.4%
- change in protein breakdown [7]: −56%
- change in skeletal muscle protein synthesis [7]: +70%
- loss of HMB to urine [8]: 20-50%
- plasma levels of HMB compared with calcium HMB [9]: approximately double the plasma levels of HMB
- time to plasma levels compared with calcium HMB [9]: about one-quarter the time

Structure (SMILES): Nc1ncnc2c1ncn2[C@@H]1O[C@H](COP(=O)(O)OP(=O)(O)OP(=O)(O)O)[C@@H](O)[C@H]1O [ATP, Adenosine-5′-triphosphate]
- Lean body mass increase ([1]; 12-week study): 4.0 ± 0.4 kg
- DXA Fat ([1]; week 0 (baseline)): 19.5 ± 1.8%
- DXA LBM ([1]; week 0 (baseline)): 67.7 ± 2.0 kg
- Weight ([1]; week 0 (baseline)): 85.7 ± 1.7 kg
- DXA Fat ([1]; week 4): 18.1 ± 1.8%
- DXA LBM ([1]; week 4): 70.1 ± 1.9 kg
- Weight ([1]; week 4): 86.9 ± 2.0 kg
- DXA Fat ([1]; week 8): 16.6 ± 1.6%
- DXA LBM ([1]; week 8): 71.4 ± 2.0 kg
- Weight ([1]; week 8): 87.0 ± 2.0 kg
- DXA Fat ([1]; week 12): 16.0 ± 1.5%
- DXA LBM ([1]; week 12): 71.7 ± 1.9 kg
- Weight ([1]; week 12): 87.0 ± 2.1 kg
- effect on cortisol levels [2]: did not affect cortisol levels
- Cortisol ([2]; week 0 (baseline)): 20.9 ± 1.2 µg/dL
- Cortisol ([2]; week 1): 20.5 ± 1.3 µg/dL
- Cortisol ([2]; week 4): 18.4 ± 1.4 µg/dL
- Cortisol ([2]; week 8): 19.0 ± 0.4 µg/dL
- Cortisol ([2]; week 9 (overreaching)): 21.5 ± 0.4 µg/dL
- Cortisol ([2]; week 10 (overreaching)): 22.6 ± 0.2 µg/dL
- Cortisol ([2]; week 12): 19.7 ± 0.6 µg/dL
- effect on free testosterone [3]: no main effect differences
- Free Testosterone ([3]; week 0 (baseline)): 112 ± 13 ng/dL
- Free Testosterone ([3]; week 1): 114 ± 9 ng/dL
- Free Testosterone ([3]; week 4): 118 ± 6 ng/dL
- Free Testosterone ([3]; week 8): 117 ± 11 ng/dL
- Free Testosterone ([3]; week 9 (overreaching)): 108 ± 7 ng/dL
- Free Testosterone ([3]; week 10 (overreaching)): 110 ± 10 ng/dL
- Free Testosterone ([3]; week 12): 125 ± 13 ng/dL
- effect on total testosterone [4]: no main effect differences
- Total Testosterone ([4]; week 0 (baseline)): 660 ± 67 ng/dL
- Total Testosterone ([4]; week 1): 645 ± 54 ng/dL
- Total Testosterone ([4]; week 4): 695 ± 60 ng/dL
- Total Testosterone ([4]; week 8): 645 ± 60 ng/dL
- Total Testosterone ([4]; week 9 (overreaching)): 621 ± 49 ng/dL
- Total Testosterone ([4]; week 10 (overreaching)): 592 ± 84 ng/dL
- Total Testosterone ([4]; week 12): 673 ± 69 ng/dL
- effect on PRS [5]: improved PRS scores after the overreaching cycle at weeks 10 and 12
- PRS (perceived recovery score) ([5]; week 0 (baseline)): 9.6 ± 0.2
- PRS (perceived recovery score) ([5]; week 1): 4.9 ± 0.4
- PRS (perceived recovery score) ([5]; week 4): 7.5 ± 0.3
- PRS (perceived recovery score) ([5]; week 8): 8.2 ± 0.3
- PRS (perceived recovery score) ([5]; week 9 (overreaching)): 5.5 ± 0.4
- PRS (perceived recovery score) ([5]; week 10 (overreaching)): 5.5 ± 0.4
- PRS (perceived recovery score) ([5]; week 12): 8.6 ± 0.4
- vertical jump power increase [6]: 796±75 watts
- decrease in vertical jump power during the overreaching cycle [6]: 2.2±0.4%
